Broadly, the IC50 is the midpoint of a concentration-inhibition curve. One may read the MIC as the smallest concentration in the dilution series that meets the test's criterion for growth inhibition.

The values below come from paper PMC12736951, “Design, Synthesis, and Biological Evaluation of 6″-Modified Apramycin Derivatives to Overcome Aminoglycoside Resistance” (Pharmaceutics, 2025).

Common to all, as to format: cell-based
Test [1] relates to HEK293T human embryonic kidney cell line. As to the kind of experiment: Cytotoxicity, MTT test. The conditions noted are these: HEK-293T, 72 h, 2-250 µg/mL, read-out: IC50, viability of HEK293T cells. As for the experimental part: The MTT test was performed in order to evaluate the effect of the compounds on eukaryotic cells’ survivability. Compounds 5a,b, 8a,b, and apramycin, as the reference drug, were tested on HEK293T human embryonic kidney cell line (ATCC). Compounds 5a,b, 8a,b, and apramycin were prepared as water solutions with a 50 mg/mL concentration. The HEK293T cell line was cultivated in DMEM/F-12 medium (Paneco LLC, Moscow, Russia) containing 10% FBS, 50 µg/mL penicillin, and 50 µg/mL streptomycin (Thermo Fisher Scientific, USA) at 37 °C in 5% CO2. Triplicates on 96-well plates were used, and 2500 HEK293T cells were seeded in 140 µL of DMEM/F-12 medium in each well during day one. The next day, compounds in twofold successive dilutions were added to these plates (concentrations in wells ranged between 2 and 250 µg/mL for 5a, 5b, and 8a, 8b). Plates were incubated for 72 h at 37 °C in 5% CO2. Afterwards, 0.5 mg/mL of the MTT reagent (Paneco LLC, Moscow, Russia) was added to each well. After 2 h of incubation, the media with MTT was replaced with 140 µL of DMSO, and all plates were placed on a shaker for 10 min for formazan to dissolve. Finally, the absorbance at a 555 nm wavelength was measured on all plates via the plate reader Victor X5 (PerkinElmer, Waltham, MA, USA). The data were then normalized, and dose–response curves and IC50 were calculated by means of GraphPad Prism version 8.0.2. (GraphPad Software, Inc., San Diego, CA, USA).

Test [2] deals with E. coli MAR17-1350. As to the kind of experiment: MIC, MDR clinical isolate. The conditions noted are these: Escherichia coli, MAR171350; E. coli MAR17-1350, MDR clinical isolate (NDM-5); read-out: MIC. From the text:
(§1) The microbial strains used in this study were obtained from the collection of the Gause Institute of New Antibiotics. The control strains included in the analysis were S. aureus ATCC 29213, E. coli ATCC 25922, P. aeruginosa ATCC 27853, M. smegmatis ATCC 607. Clinical isolates E. coli MAR17-1350, K. pneumoniae APEX-5, K. pneumoniae MAR14-3395, and K. pneumoniae MAR18-1752 with multidrug resistance, including resistance to aminoglycosides were kindly provided by the Research Institute of Antimicrobial Chemotherapy (RIAC) of the Smolensk State Medical University, Smolensk. The microbial cultures were stored at −75 °C in trypticase soy broth (Becton, Dickinson, France) containing 10–15% glycerol. Storage was carried out in accordance with CLSI guidelines. Prior to experimentation, the bacterial strains were revived from cryopreservation by inoculating them onto trypticase soy agar (Becton, Dickinson, France) and incubating at (36 ± 1) °C for 16–24 h. Individual morphologically homogeneous colonies were then suspended in sterile physiological saline, and the turbidity of the suspension was adjusted to 0.5 McFarland units using a DEN-1 spectrophotometer (Biosan, Riga, Latvia), which corresponds to a concentration of 1.5 × 10^8 CFU/mL.
(§2) The samples were dissolved in sterile distilled water, depending on the physicochemical properties of the compounds under investigation, to a concentration of 10,000 µg/mL. Working solutions were then prepared by serial dilution, resulting in concentrations ranging from 64 µg/mL to 0.125 µg/mL.
(§3) Activity was evaluated by determining the minimum inhibitory concentration (MIC) values using the microdilution method in Mueller–Hinton Broth (Beckton and Dickinson, Le Pont-de-Claix, France), in accordance with the standard procedure for assessing the antimicrobial susceptibility of microorganisms.
(§4) The analysis was conducted in 96-well microtiter plates (Medpolymer, Saint Petersburg, Russia). The bacterial inoculum was introduced within 15 min of preparation. MIC values were determined after incubation for 15–18 h at (36 ± 1) °C. Microbial growth in the presence of the tested compounds was compared to the growth control (without exposure to the test samples). The MIC was defined as the lowest concentration at which visible microbial growth was inhibited.
(§5) To ensure the accuracy of the results, the control antibiotics kanamycin A, gentamycin, and tobramycin (Abcr GmbH, Karlsruhe, Germany) were included, along with standard reference strains: E. coli ATCC 25922. The MIC values for kanamycin A were determined as follows: E. coli ATCC 25922—1–4 µg/mL [22]. For gentamycin, the MIC values were E. coli ATCC 25922–0.25–1 µg/mL [23]. For tobramycin, the MIC values were E. coli ATCC 25922–0.25–1 µg/mL [23]. The MIC values of the reference strains were required to fall within the acceptable ranges specified in [24], provided that standard assay conditions were maintained.

Test [3] relates to K. pneumoniae APEX-5. As to the kind of experiment: MIC, MDR clinical isolate. The conditions noted are these: Klebsiella pneumoniae, APEX5; K. pneumoniae APEX-5, MDR clinical isolate (NDM-16); read-out: MIC.
Source text: as §1, §2, §3, §4, §5

The subject of test [4] is K. pneumoniae MAR14-3395. Briefly: MIC, MDR clinical isolate. The conditions noted are these: Klebsiella pneumoniae, MAR143395; K. pneumoniae MAR14-3395, MDR clinical isolate (NDM-1 + OXA-244); read-out: MIC.
Source text: as §1, §2, §3, §4, §5

Test [5] concerns K. pneumoniae MAR18-1752. As to the kind of experiment: MIC, MDR clinical isolate. The conditions noted are these: Klebsiella pneumoniae, MAR181752; K. pneumoniae MAR18-1752, MDR clinical isolate (NDM-1); read-out: MIC.
Source text: as §1, §2, §3, §4, §5

Test [6] relates to S. aureus ATCC 29213. Briefly: MIC, broth microdilution. To be noted: Staphylococcus aureus, ATCC29213, Table 1.
Source text: as §1, §2, §3, §4, §5

The subject of test [7] is P. aeruginosa ATCC 27853. As to the kind of experiment: MIC, broth microdilution. The conditions noted are these: Pseudomonas aeruginosa, ATCC27853, Table 1.
Source text: as §1, §2, §3, §4, §5
For orientation: Dilution methods test growth across graded concentrations, often in twofold steps.

Test [8] concerns E. coli JW5503 with pJC27 β-galactosidase codon 537 reporter. Briefly: Translation accuracy using β-galactosidase reporters. To be noted: 0.1 μL of 50 mg/mL, 37 °C, 18 h, codon 537 GAC/GGG reporters. As for the experimental part:
To evaluate translation accuracy in the presence of antibiotics, E. coli JW5503 (kanamycin resistance cassette removed as per) was transformed with pJC27 plasmids. […] The synthesis of active β-galactosidase depends on translation errors occurring (when codons GAC and GGG are read as GAA). Petri dishes (9 cm) containing 20 mL of solid LB agar (1.5%), supplemented with chloramphenicol (11.3 μg/mL) and X-Gal (80 μg/mL), were prepared. A secondary soft-agar layer comprising 3.5 mL of LB agar (0.6%) supplemented with 11.3 μg/mL chloramphenicol and 0.5 mL of liquid culture (A600~1.0) was added and allowed to solidify. Antibiotics were applied to the plates in 0.1 μL aliquots at a concentration of 50 mg/mL for tobramycin, streptomycin, kanamycin, and apramycin, and for 5a, 5b, 8a, and 8b. The plates were then incubated at 37 °C for 18 h. […] The results were documented using a Samsung Galaxy Tab A71 camera.

Some results are limits rather than exact numbers.

As for `CNC1C(OC2OC(CNCCN)C(N)C(O)C2O)OC2CC(N)C(OC3C(N)CC(N)C(O)C3O)OC2C1O` (centres unmarked) [Compound 5a, 6″-((2-Aminoethyl-1)-amino)-6″-deoxyapramycin acetate], the IC50 in test [1] is 243 ± 7 mg/L. Besides, the minimum inhibitory concentration (MIC) was 4 mg/L in test [2]; 4 mg/L in test [3]; 4 mg/L in test [4]; 4 mg/L in test [5]; 2 mg/L in test [6]; 8 mg/L in test [7]. Further, the “induction of translation errors (blue staining at edge of inhibition zone)” value in test [8] is “caused blue staining of the bacterial lawn”.
Take `CNC1C(OC2OC(CNCCCN)C(N)C(O)C2O)OC2CC(N)C(OC3C(N)CC(N)C(O)C3O)OC2C1O` (centres unmarked) [Compound 5b, 6″-((3-Aminopropyl-1)-amino)-6″-deoxyapramycin acetate]: the half-maximal inhibitory concentration (IC50) in test [1] was over 250 mg/L. For the same compound, the MIC in test [2] came to 8 mg/L; in test [3], 8 mg/L; in test [4], 8 mg/L; in test [5], 8 mg/L; in test [6], 2 mg/L; in test [7] it was 16 mg/L. Further, the “induction of translation errors (blue staining at edge of inhibition zone)” value in test [8] is “caused blue staining of the bacterial lawn”.
As to `CNC1C(OC2OC(CNCCNC(=N)N)C(N)C(O)C2O)OC2CC(N)C(OC3C(N)CC(N)C(O)C3O)OC2C1O` (centres unmarked) [Compound 8a, 6″-((2-Guanidinoethyl-1)-amino)-6″-deoxyapramycin acetate], in test [1], the concentration for half-maximal inhibition (IC50) is over 250 mg/L. Moreover, the MIC in test [2] came to 4 mg/L; in test [3], 1 mg/L; in test [4], 2 mg/L; in test [5] it was 2 mg/L; in test [6], 0.5 mg/L; in test [7] it was 8 mg/L. The “induction of translation errors (blue staining at edge of inhibition zone)” value in test [8] is “caused blue staining of the bacterial lawn”.
Turning to `CNC1C(OC2OC(CNCCCNC(=N)N)C(N)C(O)C2O)OC2CC(N)C(OC3C(N)CC(N)C(O)C3O)OC2C1O` (centres unmarked) [Compound 8b, 6″-((3-Guanidinopropyl-1)-amino)-6″-deoxyapramycin acetate], the IC50 in test [1] was over 250 mg/L. Besides, the MIC in test [2] came to 4 mg/L; in test [3], 2 mg/L; in test [4], 4 mg/L; in test [5], 2 mg/L; in test [6], 0.5 mg/L; in test [7], 8 mg/L. In addition, the “induction of translation errors (blue staining at edge of inhibition zone)” value in test [8] is given as “caused blue staining of the bacterial lawn”.
